Columns and labels:
TRPC7 = tested on: T1, TRPC7; experiment: Microfluorometric single-cell [Ca2+]i analysis, fura-2-loaded HEK cells stably expressing TRPC7; type: cell-based, human; conditions: 50 µM
T1 construct: expressed in transfected cells
Description: The microfluorometric single-cell [Ca^2+]i analysis was performed on an inverted epifluorescence microscope (Carl Zeiss, Jena, Germany) and calibrated as described. Cells were grown on 25 mm coverslips and loaded with 4 µM fura-2/AM (AAT Bioquest, Sunnyvale, CA, U.S.A.) in HBS containing 0.2% BSA for 30 min at 37 °C. […] Experiments were performed either in standard bath solution, containing 1 mM Ca^2+ (black lines and bars), or in a nominally Ca^2+-free HBS buffer, supplemented with 200 µM EGTA (grey lines and bars). Time courses of averaged responses (left), and statistical analysis of 6–11 independent imaging experiments with means and S.D. (right) are shown. Significant differences (p < 0.05, Student´s t-test with paired data: #, with unpaired data: *) are marked for the indicated comparisons; n.s.: difference is statistically not significant.

mTRPV4-YFP = tested on: T2, mTRPV4-YFP; experiment: Selectivity profiling, fluo-4 [Ca2+]i response, TRPV4; type: cell-based, mouse; conditions: 100 µM
T2 construct: expressed in transfected cells
Description: Human embryonic kidney 293 (HEK293) cells were stably transfected with expression plasmids that encode hTRPC3-YFP, hTRPC6-YFP, hTRPC7-YFP, mTRPC4ß-YFP, rTRPV1-CFP, rTRPV2-YFP, rTRPV3-YFP, mTRPV4-YFP, or hTRPM2 as previously described. Cell lines were cultured in Earle’s minimum essential medium (MEM; Sigma, Munich, Germany), supplemented with 10% fetal calf serum (Gibco Thermo Fisher Scientific, Darmstadt, Germany), 2 mM L-glutamine, and required concentrations of geneticin in a range of 0.4–1 mg/mL. A HEK293mTRPC5-YFP cell line was maintained and induced as described before. […] For electrophysiological and single cell [Ca^2+]i imaging experiments, PC12 cells were plated onto 25 mm poly-L-lysine-coated glass coverslips and measured 24–48 h after seeding. […]
The primary compound screen and the generation of concentration response curves in HEK293 cells or in PC12 cells were performed by using a custom-made fluorescence plate imager built into a robotic liquid handling station equipped with a 96-tip multichannel head (Freedom Evo 150, Tecan, Männedorf, Switzerland) as described previously. […] Plates were mounted on the imager, and fluorescence signals were recorded with a cooled Zyla 5.5 camera (Andor, Belfast, UK) through a 515 nm long pass filter. […] When inhibitory potencies were evaluated, a second pipetting step with the respective reference agonist was performed. […]

Compound: C[C@@H]1CC[C@H]2[C@@H](C)C(=O)O[C@@H]3O[C@@]4(C)CC[C@@H]1[C@]32OO4 [artemisinin]
- [Ca2+]i signal in TRPC7-expressing cells in Ca2+-free bath (TRPC7; nominally Ca2+-free HBS with 200 µM EGTA): abolished
- [Ca2+]i response in TRPC7-overexpressing cells (TRPC7; standard bath 1 mM Ca2+): only a weak [Ca^2+]i signal
- [Ca2+]i response, TRPV4 (mTRPV4-YFP): none of the cell lines responded
